Experimental findings from ChEMBL document CHEMBL1201862, “PubChem BioAssay data set” (2004) are described below.

Each structure is given as a SMILES string.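 Cells were grown in 96-well plates and exposed to each compound for 48 hours at five concentrations; endpoints were interpolated linearly between bracketing concentrations, or set to the highest concentration if not reached. The concentration for 50% growth inhibition is given as GI50.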 Calls of active or inactive are those of the source. Cut-off read from the data, not from the text of the source: active = GI50 up to about 1.1 µM and inactive = higher.

Some test systems named below: NCI-H522; KM12; NCI-H226; ACHN; NCI/ADR-RES; PC-3; SNB-75; HOP-62; MCF7; A498; HOP-92; IGROV-1; OVCAR-8; 786-0; U-251; Malme-3M; HL-60; UACC-257; LOX IMVI; TK-10.
Common to all, as to assay: inhibition of tumour cell growth, NCI panel, 48 h

For the compound `COc1ccc(OC)c2c(=S)c3ccccc3[nH]c12`, the GI50 is 49.1 µM (inactive) in the test with NCI-H522; > 100 µM (inactive) with KM12; > 21.5 µM (inactive) in the test on NCI-H226; 53 µM (inactive) in the test on ACHN; > 100 µM (inactive) in the test with NCI/ADR-RES; 78.5 µM (inactive) in the test with PC-3. Also, the GI50 with SNB-75 is > 79.6 µM (inactive); with HOP-62 it was > 100 µM (inactive); in the test on MCF7, 36.7 µM (inactive); in the test with A498, > 92.3 µM (inactive); with HOP-92, > 100 µM (inactive); in the test on IGROV-1, > 96.6 µM (inactive). Also, the GI50 in the test with OVCAR-8 was > 73.5 µM (inactive); in the test with 786-0, > 91.8 µM (inactive); in the test on U-251, > 87.3 µM (inactive); in the test on Malme-3M, 84.9 µM (inactive); in the test with HL-60, 25.3 µM (inactive); in the test on UACC-257, > 73.8 µM (inactive). Moreover, the GI50 with LOX IMVI is 46.8 µM (inactive); with TK-10, > 67.8 µM (inactive).

With `CCOC(=O)Cn1c(C(F)(F)F)nc2nc(Cl)c(Cl)nc21`, the GI50 in the test on NCI-H522 was 20.8 µM (inactive); with KM12, 15.3 µM (inactive); in the test with NCI-H226, 50 µM (inactive); in the test with ACHN, > 45.6 µM (inactive); in the test on NCI/ADR-RES it was 50.2 µM (inactive); in the test with PC-3, 32.2 µM (inactive). In addition, the GI50 was 55.2 µM (inactive) in the test with SNB-75; 19.5 µM (inactive) in the test with HOP-62; 23.3 µM (inactive) with MCF7; 25.5 µM (inactive) with A498; 24.7 µM (inactive) with HOP-92; 22.8 µM (inactive) in the test on IGROV-1. For the same compound, the GI50 with OVCAR-8 was 38.5 µM (inactive); in the test on 786-0, > 76.9 µM (inactive); in the test on U-251, 33.5 µM (inactive); with Malme-3M, 38.4 µM (inactive); in the test with HL-60 it was 19.7 µM (inactive); with UACC-257 it was 19.6 µM (inactive). In addition, the GI50 in the test with LOX IMVI was 38.1 µM (inactive); in the test with TK-10, 61.4 µM (inactive).

Take `Cc1c2c(n3c(nc4ccccc43)c1C#N)N(c1ccc(F)cc1)CC2`: the GI50 with NCI-H522, in the test with NCI-H226, in the test on ACHN, in the test with NCI/ADR-RES, in the test on PC-3 and in the test with SNB-75 was > 100 µM (inactive) in each case. Also, the GI50 in the test on HOP-62, with MCF7, in the test on A498, with HOP-92, in the test with IGROV-1 and in the test on OVCAR-8 was > 100 µM (inactive) in each case. Also, the GI50 with 786-0, with U-251, in the test on Malme-3M, in the test on HL-60, in the test with UACC-257 and in the test on LOX IMVI was > 100 µM (inactive) each time. Also, the GI50 with TK-10 is > 100 µM (inactive).

Take `O=C(/C=C/c1ccc([N+](=O)[O-])cc1)N1CCN(CCOC(c2ccc(F)cc2)c2ccc(F)cc2)CC1`: the GI50 with NCI-H522 was 63.5 µM (inactive); in the test with KM12 it was 7.36 µM (inactive); in the test with NCI-H226, > 100 µM (inactive); in the test on ACHN, 4.34 µM (inactive); in the test with NCI/ADR-RES, 4.72 µM (inactive); in the test on PC-3, > 100 µM (inactive). The GI50 with SNB-75 was 4.7 µM (inactive); in the test on HOP-62 it was > 100 µM (inactive); in the test with MCF7, 5.19 µM (inactive); in the test on A498, 16 µM (inactive); with HOP-92, 6.58 µM (inactive); in the test on IGROV-1 it was 56.9 µM (inactive). The GI50 in the test on OVCAR-8 was 8.87 µM (inactive); with 786-0, 67.6 µM (inactive); with U-251, > 100 µM (inactive); in the test on Malme-3M, > 100 µM (inactive); with HL-60 it was 9.68 µM (inactive); with UACC-257 it was > 100 µM (inactive). Besides, the GI50 is 24.6 µM (inactive) in the test with LOX IMVI and > 100 µM (inactive) in the test with TK-10.

`O/N=C1\CC2(N3CCOCC3)CCC1(c1ccccc1)CC2`: the GI50 in the test on NCI-H522, in the test on KM12, in the test with NCI-H226, with ACHN, with NCI/ADR-RES and with PC-3 was > 100 µM (inactive) each time. Also, the GI50 with SNB-75, in the test with HOP-62, in the test with MCF7, in the test on A498, in the test with HOP-92 and in the test on IGROV-1 was > 100 µM (inactive) in each case. For the same compound, the GI50 with OVCAR-8, with 786-0, with U-251, in the test on Malme-3M, in the test with HL-60 and in the test on UACC-257 was > 100 µM (inactive) each time. The GI50 in the test on LOX IMVI and with TK-10 was > 100 µM (inactive) each time.

As to `COc1ccc(/C=C(/C#N)C(N)=O)c(OC)c1`, the GI50 with NCI-H522 is > 100 µM (inactive); in the test with KM12, > 100 µM (inactive); in the test on NCI-H226, > 100 µM (inactive); with ACHN, > 100 µM (inactive); in the test on NCI/ADR-RES it was > 100 µM (inactive); in the test on PC-3, 97.3 µM (inactive). Also, the GI50 is 72.1 µM (inactive) in the test on SNB-75; > 100 µM (inactive) in the test on HOP-62; 44 µM (inactive) with MCF7; 10.8 µM (inactive) in the test on A498; 36.4 µM (inactive) with HOP-92; > 100 µM (inactive) in the test on IGROV-1. The GI50 is > 100 µM (inactive) in the test on OVCAR-8; > 100 µM (inactive) in the test on 786-0; > 100 µM (inactive) in the test on U-251; 34 µM (inactive) in the test on HL-60; 89.5 µM (inactive) in the test on UACC-257; > 100 µM (inactive) in the test with LOX IMVI. The GI50 in the test with TK-10 is > 100 µM (inactive).

For the compound `CC(C)(C)OC(=O)NC(Cc1ccc(OCc2ccccc2)cn1)C(N)=O` (configuration not stated), the GI50 with NCI-H522 is 80 µM (inactive); in the test on KM12 it was > 100 µM (inactive); with NCI-H226, 97.3 µM (inactive); with ACHN, > 100 µM (inactive); with NCI/ADR-RES it was 89.9 µM (inactive); in the test on PC-3, > 100 µM (inactive). In addition, the GI50 was > 100 µM (inactive) with SNB-75; > 100 µM (inactive) in the test with HOP-62; 46.3 µM (inactive) with MCF7; > 100 µM (inactive) with A498; > 100 µM (inactive) in the test with HOP-92; > 100 µM (inactive) with IGROV-1. In addition, the GI50 in the test with OVCAR-8 was > 100 µM (inactive); in the test on 786-0, > 100 µM (inactive); with U-251, > 100 µM (inactive); in the test with Malme-3M, > 100 µM (inactive); in the test on HL-60 it was > 100 µM (inactive); in the test with UACC-257 it was 75.2 µM (inactive). For the same compound, the GI50 in the test on LOX IMVI and in the test on TK-10 was > 100 µM (inactive) each time.

Regarding `CC1(C)C=C(/C=N/Nc2ccccc2)C(C#N)=C(O)C1(C#N)C#N`, the GI50 in the test on NCI-H522 was > 100 µM (inactive); in the test with KM12, > 100 µM (inactive); with NCI-H226, > 100 µM (inactive); in the test with ACHN, > 100 µM (inactive); in the test on NCI/ADR-RES, > 100 µM (inactive); with PC-3, 36.7 µM (inactive). For the same compound, the GI50 is > 100 µM (inactive) in the test on SNB-75; > 100 µM (inactive) in the test on HOP-62; > 100 µM (inactive) with MCF7; 48.6 µM (inactive) in the test on A498; 28.5 µM (inactive) with HOP-92; > 100 µM (inactive) in the test on IGROV-1. For the same compound, the GI50 in the test on OVCAR-8 was > 100 µM (inactive); with 786-0 it was > 100 µM (inactive); in the test with Malme-3M, > 100 µM (inactive); in the test with HL-60 it was 41.9 µM (inactive); in the test with UACC-257, > 100 µM (inactive); in the test with LOX IMVI, > 100 µM (inactive). Also, the GI50 with TK-10 was > 100 µM (inactive).

For the compound `COc1nc2c(c(=O)n1C)N(C(C)=O)C1C(N2)OCC(OC(C)=O)C1OC(C)=O` (configuration not stated), the GI50 in the test on NCI-H522, in the test with KM12, in the test on NCI-H226, with ACHN, with NCI/ADR-RES and in the test on PC-3 was > 10 µM (inactive) throughout. In addition, the GI50 in the test on SNB-75, in the test with HOP-62, in the test on MCF7, in the test on A498, in the test with HOP-92 and in the test on IGROV-1 was > 10 µM (inactive) throughout. Besides, the GI50 with OVCAR-8, in the test with 786-0, with U-251, in the test on Malme-3M, in the test with HL-60 and in the test on UACC-257 was > 10 µM (inactive) in each case. The GI50 with LOX IMVI and with TK-10 was > 10 µM (inactive) in each case.

Regarding `C=C(C)[C@@H]1CC[C@]2(C(=O)O)CC[C@]3(C)[C@H](CC[C@@H]4[C@@]5(C)CC(=O)C(C)(C)[C@@H]5CC[C@]43C)[C@@H]12`, the GI50 in the test on NCI-H522 is 5.78 µM (inactive); with KM12 it was 8.77 µM (inactive); in the test on NCI-H226, 9.38 µM (inactive); with ACHN, 7.53 µM (inactive); in the test on NCI/ADR-RES it was 11.1 µM (inactive); in the test with PC-3, 7.24 µM (inactive). For the same compound, the GI50 is 10.6 µM (inactive) with SNB-75; 9.46 µM (inactive) with HOP-62; 6.64 µM (inactive) with MCF7; 5.6 µM (inactive) in the test with A498; 11.1 µM (inactive) with HOP-92; 9.86 µM (inactive) in the test on IGROV-1. Besides, the GI50 was 11.2 µM (inactive) in the test with OVCAR-8; 7 µM (inactive) with 786-0; 6.47 µM (inactive) in the test on U-251; 8.05 µM (inactive) in the test on Malme-3M; 0.649 µM (active) in the test with HL-60; 7.55 µM (inactive) with UACC-257. Further, the GI50 in the test with LOX IMVI is 8.36 µM (inactive); in the test on TK-10, 11 µM (inactive).
